pIC50: −log10 of the molar value. Converted amounts (≈) assume the structure as drawn. Like-named read-outs stand apart in the source and are kept apart here.
What was measured:
guinea-pig ureters = assay: Antispastic activity in vitro: spontaneous motility of guinea-pig ureters; conditions: for IC50: Cavia porcellus
Source text: The isotonic contractions were detected by means of a force transducer and recorded. […] A given concentration of the product under test was then introduced into the bath and left in contact with the prepared specimen for five minutes, after which the ureter was washed until its own spontaneous activity was re-established.

mouse = assay: Anxiolytic activity in the mouse, Black and White Box test; type: in vivo; conditions: for TOTAL MOV.: five minutes
Method: In order to confirm the hypothesis that the potent activity of some of the compounds of the invention against central CCK-B may be correlated with a possible anxiolytic activity, this potential activity was evaluated in the mouse with the use of the "Black and White Box test". This experimental model, which was carried out according to Costall et al. [Pharm. Biochem. Behav. 32 (1989), 777-785] used a box with dimensions of 45×21×21 (h) cm. divided into two compartments which communicated with each other by means of a 13×5 cm hole. The smaller compartment (1/3 of the total area) had black walls, whereas the larger had transparent walls and was illuminated by a lamp which was placed 20 cm above the box and supplied light at 20 W. Under the floor was an activity meter which registered the movements performed by the animal in the individual compartments. The experiment was started by placing the animal in the centre of the illuminated box; as well at its movements, the time which the animal spent in the dark and in the light and the number of times it moved between the 2 compartments were recorded for five minutes. In general, a control animal tended preferably to stay in the dark compartment where it felt better protected from an unusual enviromental situation which put it in a state of anxiety. In this experimental model ( see the reference cited above), a compound having anxiolytic activity decreased the % of movements into the dark in comparison with the total movements, increased the movements between the two light-dark compartments, and increased the % of the total time time spent in the light. The results obtained are given in Table 5 below in which the activities obtained with the compound 1 (the rectus series ) and its enantiomer 2 (sinister) tested in comparison with diazepam and the CCK-B antagonist L365-260.

[1] = target: T1, central CCK-B receptors (guinea pig cortical membrane) (Cavia porcellus, UniProt H0VZC5); assay: Inhibition of binding of (3-H)[N-methyl-N-leucine]CCK-8 to guinea pig cortical membranes (anti-CCK-B); conditions: IC50, inhibition of binding of (3-H)[N-methyl-N-leucine]CCK-8 to the guinea pig cortical membrane, 150 minutes at 25° C.
T1 construct: Cerebral cortices of white male guinea pigs were therefore used; from tissue; host or cells: guinea pig cerebral cortex membranes
T1 sequence (H0VZC5 1-426): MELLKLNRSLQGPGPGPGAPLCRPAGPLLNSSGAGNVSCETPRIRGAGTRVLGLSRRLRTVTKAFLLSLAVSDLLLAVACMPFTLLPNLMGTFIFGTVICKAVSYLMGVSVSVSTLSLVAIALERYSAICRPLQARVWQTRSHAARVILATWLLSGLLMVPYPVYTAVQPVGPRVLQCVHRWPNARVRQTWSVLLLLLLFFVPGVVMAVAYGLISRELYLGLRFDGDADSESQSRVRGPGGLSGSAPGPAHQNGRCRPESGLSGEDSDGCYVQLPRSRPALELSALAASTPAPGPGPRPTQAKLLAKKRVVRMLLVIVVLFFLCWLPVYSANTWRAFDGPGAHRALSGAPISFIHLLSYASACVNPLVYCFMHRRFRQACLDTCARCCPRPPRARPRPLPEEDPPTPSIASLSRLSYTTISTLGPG
Method: Cerebral cortices of white male guinea pigs were therefore used, according to the method mentioned above, so as to obtain a membrane content/ml corresponding to about 300 mcg of proteins/mi. The membranes were incubated together with the radioactive tracer and the compounds under test for 150 minutes at 25° C. After the supernatant liquid had been discarded, the radioactivity associated with the pellet was determined with a liquid scintillator.

[2] = read-out: IC50 (force), inhibition of the spontaneous motility of guinea-pig ureters in vitro
[3] = read-out: IC50 (frequency), inhibition of the spontaneous motility of guinea-pig ureters in vitro
[4] = force of the contractions, five minutes contact, 37° C., read-out: IC50 (force), inhibition of the spontaneous motility of guinea-pig ureters in vitro
[5] = frequency of the contractions, five minutes contact, 37° C., read-out: IC50 (frequency), inhibition of the spontaneous motility of guinea-pig ureters in vitro

## COc1ccc(Cc2nccc3cc(OC)c(OC)cc23)cc1OC [Papaverine, reference compound]
guinea-pig ureters; [2]
  IC50: 23 µg/mL (≈ 67.8 µM)
guinea-pig ureters; [3]
  IC50: 27 µg/mL (≈ 79.6 µM)

## CCCCCN(CCCCC)C(=O)C(CCC(=O)NCC1CCCN1CC)NC(=O)c1ccc(C)c(C)c1 (stereo not drawn) [Compound 58]
guinea-pig ureters; [4]
  IC50: 14 µg/mL (≈ 26.5 µM)
guinea-pig ureters; [5]
  IC50: 19 µg/mL (≈ 35.9 µM)

## CCCCCN(CCCCC)C(=O)C(CCC(=O)NCCN(CC)CC)NC(=O)c1ccc(C)c(C)c1 (stereo not drawn) [Compound 42]
guinea-pig ureters; [4]
  IC50: 18 µg/mL (≈ 34.8 µM)
guinea-pig ureters; [5]
  IC50: 22 µg/mL (≈ 42.6 µM)

## CCCCN(CCCC)C(=O)C(CCC(=O)NCCN1CCOCC1)NC(=O)c1ccc(C)c(C)c1 (stereo not drawn) [Compound 28]
guinea-pig ureters; [4]
  IC50: 18 µg/mL (≈ 35.8 µM)
guinea-pig ureters; [5]
  IC50: 43 µg/mL (≈ 85.5 µM)

## CCCCCN(CCCCC)C(=O)C(CCC(=O)NCCN1CCOCC1)NC(=O)c1ccc(Cl)c(Cl)c1 (stereo not drawn) [Compound 37]
guinea-pig ureters; [4]
  IC50: 8 µg/mL (≈ 14 µM)
guinea-pig ureters; [5]
  IC50: 7 µg/mL (≈ 12.2 µM)

## CCCCN(CCCC)C(=O)C(CCC(=O)NCCCN1CCOCC1)NC(=O)c1ccc(C)c(C)c1 (stereo not drawn) [Compound 29]
guinea-pig ureters; [4]
  IC50: 18 µg/mL (≈ 34.8 µM)
guinea-pig ureters; [5]
  IC50: 17 µg/mL (≈ 32.9 µM)

## CN1C(=O)CN=C(c2ccccc2)c2cc(Cl)ccc21 [DIAZEPAM, diazepam, reference compound]
mouse; 1 mg/kg IP
  LIGHT TIME (%) TOTAL TIME: 29.3%
  LIGHT TIME (%) TOTAL TIME: % EFF.VS CONTROL: 19%
  LIGHT-DARK MOVEMENTS: 19.9
  LIGHT-DARK MOVEMENTS: % EFF. VS CONTROL: +37.2%
  MOV. DARK (%) TOTAL MOV.: 53%
  MOV. DARK (%) TOTAL MOV.: % EFF. VS CONTROL: -5%
  TOTAL MOV.: 508
mouse; 3 mg/kg IP
  LIGHT TIME (%) TOTAL TIME: 33.6%
  LIGHT TIME (%) TOTAL TIME: % EFF.VS CONTROL: 36.7%
  LIGHT-DARK MOVEMENTS: 22.3
  LIGHT-DARK MOVEMENTS: % EFF. VS CONTROL: +53.8%
  MOV. DARK (%) TOTAL MOV.: 52%
  MOV. DARK (%) TOTAL MOV.: % EFF. VS CONTROL: -7%
  TOTAL MOV.: 539
mouse; IP
  anxiolytic activity in the Black and White Box test (in words): active in a dose-dependent manner for all the parameters tested

## CCCCCN(CCCCC)C(=O)C(CCC(=O)NCCN1CCOCC1)NC(=O)c1ccc(OC)c(OC)c1 (stereo not drawn) [Compound 35]
guinea-pig ureters; [4]
  IC50: 18 µg/mL (≈ 32 µM)
guinea-pig ureters; [5]
  IC50: 16 µg/mL (≈ 28.4 µM)

## CN1CCN(CCNC(=O)CC[C@@H](NC(=O)c2cc(Cl)cc(Cl)c2)C(=O)N2CCC3(CCCC3)CC2)CC1 [Compound 6]
[1]
  pIC50: 5.48

## CCCCCN(CCCCC)C(=O)C(CCC(=O)NCCN1CCOCC1)NC(=O)c1ccc(C(C)C)cc1 (stereo not drawn) [Compound 36]
[1]
  pIC50: 4.09
guinea-pig ureters
  activity on guinea-pig ureters (in words): extremely active
guinea-pig ureters; [4]
  IC50: 2 µg/mL (≈ 3.67 µM)
guinea-pig ureters; [5]
  IC50: 1.5 µg/mL (≈ 2.75 µM)

## CCCCN(CCCC)C(=O)C(CCC(=O)NCCN(C)C)NC(=O)c1ccc(C)c(C)c1 (stereo not drawn) [Compound 25]
guinea-pig ureters; [4]
  IC50: 36 µg/mL (≈ 78.1 µM)

## CN1CCN(C(=O)CC[C@@H](NC(=O)c2cccc(Cl)c2)C(=O)N2CCC3(CCCC3)CC2)CC1 [Compound 7]
[1]
  pIC50: 5.19

## COc1ccc(CCN(C)CCCC(C#N)(c2ccc(OC)c(OC)c2)C(C)C)cc1OC (stereo not drawn) [Verapamil, reference compound]
guinea-pig ureters; [2]
  IC50: 3 µg/mL (≈ 6.6 µM)
guinea-pig ureters; [3]
  IC50: 2.2 µg/mL (≈ 4.84 µM)

## CCCCCN(CCCCC)C(=O)C(CCC(=O)NCCCN1CCN(Cc2ccccc2)CC1)NC(=O)c1ccc(C)c(C)c1 (stereo not drawn) [Compound 51]
guinea-pig ureters; [4]
  IC50: 100 µg/mL (≈ 158 µM)
guinea-pig ureters; [5]
  IC50: 100 µg/mL (≈ 158 µM)

## CCCCCN(CCCCC)C(=O)C(CCC(=O)NCCCN1CCOCC1)NC(=O)c1ccc(C)c(C)c1 (stereo not drawn) [Compound 47]
guinea-pig ureters; [4]
  IC50: 12 µg/mL (≈ 22 µM)
guinea-pig ureters; [5]
  IC50: 15 µg/mL (≈ 27.5 µM)

Reference: patent US5587479A, “Basic derivatives of glutamic acid and aspartic acid as gastrin or cholecystokinin antagonists” (priority 1992, dated 1996)
